Test results published in US20060216258A1, “Water-in-silicone emulsion compositions” (priority 2005, published 2006).

Test: human repetitive patch test (cumulative irritation)
Details: undiluted product under semi-occlusive patches daily over twelve-day test period, about 100 μl per patch; SLS value is average of two studies
Experimental: The technique involves application of undiluted test products under semi-occlusive patches daily over a twelve-day test period. Approximately 100 μl of test product is applied to each non-woven cotton pad and secured to the skin with porous, hypoallergenic tape. An undosed patch served as a negative control, while a 1.0% sodium lauryl sulfate (SLS) patch served as the positive control. Each day, patches were removed and test sites professionally graded for irritation prior to re-patching.

CCCCCCCCCCCCOS(=O)(=O)[O-].[Na+] [SLS, sodium lauryl sulfate]
Cumulative Irritation Score: 514
